From PubChem BioAssay (NCI)
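Exposure lasted 48 hours, with cells grown in 96-well plates and compounds tested at five concentrations. Abbreviation: GI50, concentration required for 50% inhibition of growth. At the TGI there is no net growth.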

Columns and labels:
Assay in all cases: NCI-60 cell line screen, 48 h
DMS 273 small cell lung = system: DMS 273 small cell lung
LXFL 529 NSCLC = system: LXFL 529 NSCLC
DMS 114 small cell lung = system: DMS 114 small cell lung
KM20L2 colon = system: KM20L2 colon
HOP-18 NSCLC = system: HOP-18 NSCLC
SNB-78 CNS = system: SNB-78 CNS
DLD-1 colon = system: DLD-1 colon
M19-MEL melanoma = system: M19-MEL melanoma
XF 498 CNS = system: XF 498 CNS
RXF-631 renal = system: RXF-631 renal

Structure (SMILES) | TGI (DMS 273 small cell lung) [µM] | TGI (LXFL 529 NSCLC) [µM] | TGI (DMS 114 small cell lung) [µM] | TGI (KM20L2 colon) [µM] | TGI (HOP-18 NSCLC) [µM] | TGI (SNB-78 CNS) [µM] | TGI (DLD-1 colon) [µM] | TGI (M19-MEL melanoma) [µM] | TGI (XF 498 CNS) [µM] | GI50 (LXFL 529 NSCLC) [µM] | GI50 (DMS 114 small cell lung) [µM] | GI50 (KM20L2 colon) [µM] | GI50 (HOP-18 NSCLC) [µM] | GI50 (DLD-1 colon) [µM] | GI50 (M19-MEL melanoma) [µM] | GI50 (XF 498 CNS) [µM] | TGI (RXF-631 renal) [µM]
COc1cc(C2C(Cl)C(=O)N2NC(=O)Cc2ccccc2)ccc1O (centres undefined) | > 100 | > 100 | > 100 | > 100 | > 100 | > 100 | > 100 | > 100 | > 100 |  |  |  |  |  |  |  | 
COCC12CC(CC1=O)C1C2ON2c3ccccc3C(=O)C12c1ccccc1 (centres undefined) | > 100 | > 100 | > 100 | > 100 | > 100 | > 100 | > 100 |  | > 100 |  |  |  |  |  |  |  | 
CC(C)(C)C(=O)[CH-]C(=O)C(F)(F)C(F)(F)C(F)(F)F.CC(C)(C)C(=O)[CH-]C(=O)C(F)(F)C(F)(F)C(F)(F)F.[O-]CC1OC(O)C(O)C(O)C1O.[O-]CC1OC(O)C(O)C(O)C1O.[Ti+4] |  | > 100 | > 100 | > 100 | > 100 |  | > 100 | > 100 | > 100 | 71.4 | > 100 | > 100 | > 100 | 67.4 | > 100 | > 100 | 
CCOC(=O)C1CC/C(=C(/C#N)C(=O)OC)N1 (centres undefined) | > 100 | > 100 | > 100 | > 100 |  | > 100 | > 100 | > 100 | > 100 |  |  |  |  |  |  |  | 
O=C(O)Cc1ccc2c(c1O)C(=O)c1c(ccc(CC(=O)O)c1O)C2=O | > 100 | > 100 | > 100 | > 100 | > 100 | > 100 | > 100 | > 100 | > 100 |  |  |  |  |  |  |  | 
O=S(Cc1cc2c(cc1Br)OCO2)c1ccccc1 (centres undefined) | > 100 | > 100 | 61.8 | > 100 | > 100 | > 100 | 49.5 | > 100 |  |  |  |  |  |  |  |  | 
O=C1C=C(Nc2ccccc2C(=O)CC(=O)C(=O)Nc2ccc(Cl)c(Cl)c2)c2ccccc2C1=O |  |  | 66.7 |  |  | > 100 | > 100 | 8.96 |  |  |  |  |  |  |  |  | 
CCOC(=O)c1cn2c([nH]c3ccccc32)c(C#N)c1=O | > 100 | > 100 |  | > 100 | > 100 | > 100 | > 100 | > 100 | > 100 |  |  |  |  |  |  |  | > 100
O=C1C2Nc3ccccc3SC2C(=O)N1c1cccc([N+](=O)[O-])c1 (centres undefined) | > 100 | > 100 | > 100 | > 100 |  | > 100 | > 100 | > 100 | > 100 |  |  |  |  |  |  |  | > 100
Cc1nc(N)sc1C(=O)/C=C/c1ccc([N+](=O)[O-])cc1 | > 100 |  | > 100 | > 100 | > 100 | > 100 | > 100 | > 100 |  |  |  |  |  |  |  |  | 
CCCCCn1cnc2c1S(=O)(=O)N(C)C(NC(=O)c1ccccc1)=N2 | > 100 | > 100 | > 100 | > 100 |  | > 100 | > 100 | > 100 |  |  |  |  |  |  |  |  | 
Cc1cc(=O)[nH]c(CNC(=O)Cc2ccccc2)n1 | > 100 | > 100 | > 100 | > 100 |  | > 100 | > 100 | > 100 | > 100 |  |  |  |  |  |  |  | 
COC(=O)C(=O)C1CCCCC(C2=NC3NN=C(N)N3C2=O)C1=O (centres undefined) | > 100 | > 100 | > 100 | > 100 | > 100 |  | > 100 | > 100 | > 100 |  |  |  |  |  |  |  | > 100
COc1ccc(C2C(Cl)C(=O)N2NC(=O)c2ccc(N)cc2)cc1OC (centres undefined) | 11.8 | 3.78 |  | 27.8 |  | > 100 | 15.4 | 16.1 | 2.3 |  |  |  |  |  |  |  | 
CCOC(=O)c1c(C(F)(F)F)oc2c1ccc1nc3nonc3nc12 | 34.4 | 27.2 | 55.9 | 36.5 | 26 | 23.2 | 28.6 | 38.2 | 30.8 |  |  |  |  |  |  |  | 37.6
CC(C)c1cccc(C(C)C)c1NC1=CC(=O)C(=O)c2ccccc21 | > 100 | > 100 |  | > 100 | > 100 | > 100 | > 100 | 43.1 |  |  |  |  |  |  |  |  | > 100
Cn1c2c(cc(-c3ccccc3)c1=O)COc1ccccc1-2 | 43.8 | > 100 | 36.2 | > 100 | > 100 | > 100 | > 100 | 64.2 | 26.1 |  |  |  |  |  |  |  | 
CO[C@H](c1ccccc1)[C@H](C)N(C)c1ccc2ccccc2c1C1=NC(C)(C)CO1 | 39.2 | 49.6 | 33.7 | 27.4 | 31.9 |  | 31.8 | 36.6 | 33.5 |  |  |  |  |  |  |  | 39.8
CCCCCC(=O)Cc1cc(OC)cc2c1C(=O)Oc1cc(O)c(C(=O)O)c(CC(=O)CCCCC)c1O2 | > 100 | > 100 | > 100 | > 100 |  | > 100 | > 100 | 69.6 | > 100 |  |  |  |  |  |  |  | > 100
N#C/C(=C\c1ccc(O)cc1O)C(N)=O | > 100 | > 100 |  | > 100 |  | > 100 | > 100 | > 100 | > 100 |  |  |  |  |  |  |  | 
CC1=NN(c2ccccc2)C(=O)C1=C1SCCCS1 | > 100 | > 100 | 45.2 | > 100 | > 100 | > 100 | 45.9 | > 100 | 58.6 |  |  |  |  |  |  |  | 
Nc1ccc(C(=O)NN2C(=O)C(Cl)C2c2cccc([N+](=O)[O-])c2)cc1 (centres undefined) | 32.5 | 34.9 | 36.5 | 43.6 |  | > 100 | 34.7 | 34.1 | 26.5 |  |  |  |  |  |  |  | 
COC1=CC(=O)c2ccccc2C1(C)C1=NC(C)(C)CO1 (centres undefined) | > 100 | > 100 | > 100 | > 100 | > 100 |  | > 100 | > 100 | > 100 |  |  |  |  |  |  |  | > 100
